Test results: patent publication US9066923B2, “Methods for Alzheimer's disease treatment and cognitive enhancement” (Blanchette Rockefeller Neurosciences Institute, priority 2002, dated 2015)

Legend:
sAPPα secretion = sAPPα secretion in cultured human skin fibroblasts (immunoblot, antibody 6E10); assay type: cell-based
Procedure: (§1) Cultured skin fibroblasts were obtained from the Coriell Cell Repositories and grown using the general guidelines established for their culture with slight modifications (Cristofalo & Carptentier, 1988; Hirashima et al., 1996). The culture medium in which cells were grown was Dulbecco's modified Eagle's medium (GIBCO) supplemented with 10% calf serum (Biofluids, Inc.). Fibroblasts from control cell lines (AC), cases AG07141 and AG06241, and a familial AD (FAD) case (AG06848) were utilized.

PKCα isozyme [1] = target: T1, PKCα isozyme (Homo sapiens, UniProt P17252); assay: PKC translocation to the cell membrane (immunoblot of cytosolic and membranous fractions of fibroblasts); assay type: cell-based
T1 construct: endogenous in cells; host or cells: cultured skin fibroblasts from Coriell Cell Repositories (AG07141, AG06241, AG06848)
Procedure: as §1
Immunoblot experiments were conducted using well-established procedures (Dunbar, 1994). Cells were grown to confluency (˜90%) in 6 cm Petri dishes. […] Fibroblasts were washed twice with ice-cold PBS, scraped in PBS, and collected by low-speed centrifugation. The pellets were re-suspended in the following homogenization buffer: 20 mM Tris-HCl, pH 7.5, 2 mM EDTA, 2 mM EGTA, 5 mM DTT, 0.32 M sucrose, and protease inhibitor cocktail (Sigma). Hemogenates were obtained by sonication, and centrifuged at […] for 20 minutes, and the supernatants were used as the cytosolic fraction. The pellets were homogenized in the same buffer containing 1.0% Triton X-100, incubated in ice for 45 minutes, and centrifuged at ˜12,000 g for 20 minutes. The supernatant from this batch was used as the membranous fraction. After protein determination, 20 μg of protein were diluted in 2× electrophoresis sample buffer (Novex), boiled for 5 minutes, run on 10% acrylamide gel, and transferred electrophoretically to a PVDF membrane. The membrane was saturated with 5% milk blocker by incubating it at room temperature for an hour. The primary antibody for PKC isoform (Transduction Laboratories) was diluted (1:1000) in blocking solution and incubated with the membrane overnight at 4° C. After incubation with the secondary antibody, alkaline phosphatase anti-mouse IgG (Vector Laboratories), the membrane was developed using a chemoluminescent substrate (Vector Laboratories) per the manufacturer's instructions. The band intensities were quantified by densitometry using a BioRad GS-800 calibrated scanning densitometer and Multianalyst software (BioRad).

rats = assay: Morris Water Maze; assay type: in vivo, rat; details: intraventricular injection
Excerpt: (See, for example, Hollister, L. E., 1990, Pharmacopsychiat., 23, (Suppl II) 33-36). The available animal models of memory loss and impaired learning involve measuring the ability of animals to remember a discrete event. These tests include the Morris Water Maze and the passive avoidance procedure. In the Morris Water Maze, animals are allowed to swim in a tank divided into four quadrants, only one of which has a safety platform beneath the water. The platform is removed and the animals are tested for how long they search the correct quadrant verse the incorrect quadrants. In the passive avoidance procedure the animal remembers the distinctive environment in which a mild electric shock is delivered and avoids it on a second occasion. A variant of the passive avoidance procedure makes use of a rodent's preference for dark enclosed environments over light open ones. Further discussion can be found in Crawley, J. N., 1981, Pharmacol. Biochem. Behav., 15, 695-699; Costall, B. et al, 1987, Neuropharmacol., 26, 195-200; Costall, B. et al., 1989, Pharmacol. Biochem. Behav., 32, 777-785; Barnes, J. M. et al., 1989, Br. J. Pharmacol., 98 (Suppl) 693P; Barnes, J. M. et al. 1990, Pharmacol. Biochem. Behav., 35, 955-962.
In the present example, rats were injected intraventricularly with bryostatin-1 and trained for 4 days (following standard protocols). Retention was assessed on the 5th day. […] Acquisition of memory was measured as time spent in the relevant quadrant (5th day). […] (See, FIG. 4). Bryostatin is capable of being used at concentrations to improve cognition that are 300 to 300,000 times lower than the concentration used to treat tumors.

PKCα isozyme [2] = target: T1, PKCα isozyme; details: cited from earlier work
patients = details: cited from earlier work
tumor promotion = details: cited from earlier work
[3] = tested on: diacylglycerol-protein kinase C; details: aorta of diabetic rats and cultured rat smooth muscle cells exposed to elevated glucose (Kunisaki et al. 1994); cited from earlier work
[4] = tested on: patients suffering from moderately advanced Alzheimer's Disease; details: 2000 IU/day (Burke et al. 1999); cited from earlier work

Compound	sAPP secretion (sAPPα secretion; 0.1 nM bryostatin-1, compared to vehicle alone and benzolactam)	sAPPα secretion, efficacy compared with controls and Benzolactam (FIG. 1) (sAPPα secretion; FIG. 1)	sAPP secretion (sAPPα secretion; bryostatin at 0.01 nM)	activation of PKC (immunoblot, FIG. 7) (PKCα isozyme [1]; 0.1 nM bryostatin-1, 30 minutes after delivery)	response demonstrating the activation of PKC (FIG. 7) (PKCα isozyme [1]; AD cells, FIG. 7)	time of maximal PKC translocation to the cell membrane (PKC activation) (PKCα isozyme [1]; bryostatin) [min]	PKC translocation after the maximum, compared with basal level (PKCα isozyme [1]; partial decline after 30 min, followed up to six hours)	memory or retention: time spent in the relevant quadrant (rats; 5th day, versus sham injection)	time to improved cognition compared to control rats (rats; FIG. 4) [days]	learning: escape latency from trial to trial (rats; trained for 4 days, versus sham injection)	shape of the dose response curve as PKC activator (PKCα isozyme [2])	tolerability (patients; 20 μg/m^2 once per week for 3 weeks (Weitman et al. 1999))	maximum-tolerated dose (patients; 1 hour i.v. infusion once every 2 weeks for 6 weeks (Prendville et al. 1993)) [μg/m^2]	maximum tolerated dose (patients; once per week for 8 weeks (Jayson et al. 1995)) [μg/m^2]	tumor promotion activity (tumor promotion)	diacylglycerol-protein kinase C activation [3]	cognitive abilities [4]	mortality and morbidity [4]
CCC/C=C/C=C/C(=O)O[C@H]1/C(=C/C(=O)OC)C[C@H]2C[C@H]([C@@H](C)O)OC(=O)C[C@H](O)C[C@@H]3C[C@H](OC(C)=O)C(C)(C)[C@](O)(C[C@@H]4C/C(=C/C(=O)OC)C[C@H](/C=C/C(C)(C)[C@]1(O)O2)O4)O3 [bryostatin-1]	dramatic increase of sAPP secretion	greater efficacy at lower concentrations than controls and Benzolactam	still proved effective to increase sAPP secretion	easily detectable	powerful response	30	remains higher than basal translocation levels up to six hours	significantly enhanced	≤ 2	significantly lower	biphasic	well tolerated and were not associated with myalgia or other side effects	50	25	devoid of tumor promotion activity	–	–	–
vitamin E	–	–	–	–	–	–	–	–	–	–	–	–	–	–	–	normalize diacylglycerol-protein kinase C activation	did not enhance cognitive abilities	reduced mortality and morbidity
